Data published in PubChem BioAssay (NCI).
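Exposure lasted 48 hours, with cells grown in 96-well plates and compounds tested at five concentrations. At the TGI there is no net growth.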

Assays:
Assay in all cases: growth of human tumour cells (NCI), 48 h
[1] = test system: HT29 colon
[2] = test system: DU-145 prostate
[3] = test system: KM12 colon
[4] = test system: MALME-3M melanoma
[5] = test system: TK-10 renal
[6] = test system: CAKI-1 renal
[7] = test system: NCI-H23 lung
[8] = test system: UACC-257 melanoma
[9] = test system: RPMI-8226 leukemia
[10] = test system: OVCAR-3 ovarian

Structure (SMILES) | TGI [1] | TGI [2] | TGI [3] | TGI [4] | TGI [5] | TGI [6] | TGI [7] | TGI [8] | TGI [9] | TGI [10]
Cn1ccc(C(=O)NCCCCCNC(=O)c2ccn(C)c(=O)c2O)c(O)c1=O | > 100 µM | > 100 µM | > 100 µM | > 100 µM | > 100 µM | > 100 µM | > 100 µM | > 100 µM |  | 
CCOC12SC(=Nc3ccc(C)cc3)NN1C(=S)N(C)N=C2C (stereo unspecified) | > 100 µM |  | > 100 µM |  |  |  | > 100 µM | > 100 µM | > 100 µM | 
CC(C)(C)c1cc(C2COC(=O)COCC(=O)OCCOCCOCCO2)cc(C(C)(C)C)c1O (stereo unspecified) | > 100 µM | 41.7 µM | > 100 µM | > 100 µM | 43.7 µM | 51.3 µM | > 100 µM | > 100 µM | > 100 µM | > 100 µM
NC(=O)CS(=O)CC(N)C(=O)O (stereo unspecified) | > 100 µM | > 100 µM | > 100 µM | > 100 µM | > 100 µM | > 100 µM | > 100 µM | > 100 µM |  | > 100 µM
COc1ccc2c(c1)-c1nn(CCN(C)C)c3ccc(C(=O)NCCCN(C)CCCNC(=O)c4ccc5c6c(nn5CCN(C)C)-c5cc(OC)ccc5Nc46)c(c13)N2 | 1.74 µM | 0.952 µM |  | 0.762 µM | 4.95 µM | 8.12 µM | 0.384 µM | 0.614 µM | 0.0768 µM | 3.23 µM
O=C1C[C@H](c2ccccc2)C2(C(=O)c3ccccc3C2=O)[C@H](c2ccccc2)C1 | > 100 µM | > 100 µM | > 100 µM | > 100 µM |  | > 100 µM | > 100 µM |  | > 100 µM | > 100 µM
CCC(C)C1(O)OC2CC3(C)OC(=CC3=O)/C(C)=C\C3OC(=O)C1(C)C32 (stereo unspecified) | 34.3 µM | 17 µM | 24.7 µM |  | 54.2 µM | 31.5 µM | 24.7 µM | 45.7 µM | > 100 µM | 42.6 µM
O=C(/C=C/c1ccccc1O)/C=C/c1ccccc1O | 4.85 µM | 3.2 µM | 3.3 µM | 4.27 µM | 3.27 µM | 3.21 µM | 3.84 µM | 21.8 µM | 0.76 µM | 1.26 µM
COc1cc(C(SCc2ccccc2)SCc2ccccc2)ccc1O | > 10 µM | > 10 µM | > 10 µM | > 10 µM | > 10 µM | > 10 µM |  |  | > 10 µM | > 10 µM
Cc1n(CC(=O)c2ccccc2)nc2sc(N)n[n+]12 | > 100 µM | > 100 µM | > 100 µM | > 100 µM | > 100 µM | > 100 µM | > 100 µM | > 100 µM | > 100 µM | > 100 µM
O=C1O[C@]2(c3ccccc3)C(c3ccccc3)=C[C@]2(C(=O)c2ccccc2)C1=O | > 100 µM | > 100 µM | > 100 µM | > 100 µM | 73.5 µM | > 100 µM | > 100 µM | > 100 µM | 64.9 µM | > 100 µM
